Tests used:
[1] = target: T1, hSLC13A5 (Homo sapiens, UniProt Q86YT5); test: HepG2/14C-citrate uptake assay; format: cell-based; set-up: HepG2 cells endogenously express hSLC13A5 transporter which is responsible for the uptake of citrate into these cells; endogenous in cells; host or cells: HepG2; conditions: HepG2 cells endogenously expressing hSLC13A5; Cytostar-T; 14C-citrate ~1.8 μM; incubation over night
Text: (4) HepG2/^14C-Citrate Uptake Assay
HepG2 cells endogenously expressing hSLC13A5 were obtained from the Wistar Institute (Knowles et al., Science 1980, 209, 497-499).
HepG2 cells endogenously express hSLC13A5 transporter which is responsible for the uptake of citrate into these cells. […] The uptake of ^14C-citrate into HepG2 cells is monitored using the Cytostar-T assay. This assay format is based on the imported radioactive citrate brought into proximity with the scintillant contained within the base of the plate by virtue of the biological processes within the cells. The radioactive decay is converted to a light signal based on the integration of the scintillation matrix into the assay plate.
(§1) Method: ^14C-Citrate Uptake Assay
Starting from 10 mM stock solutions in 100% DMSO, compounds are diluted in pure DMSO using the appropriate dilution steps. Prior to the uptake assay, 400 μL assay medium+4.8 μL compound solution (or pure DMSO for non-inhibited control wells) are mixed (final DMSO concentration in the assay: 1% (v/v)) ^14C-citrate working solution (volumes required per 96-well):
The HepG2 cells are cultivated in cell culture medium (EMEM+10% fetal calf serum+1×NEAA and 10 mM L-Glutamin) For the assay, the medium of the confluent cultures is discarded and the cells are washed with DPBS w/o Mg^2+ w/o Ca^2+. The cells are detached by the addition of 1.0 mL 2× Trypsin in DPBS w/o Mg^2+ w/o Ca^2+ with 7.5 mM EDTA per 75 cm^2 culture flask for up to 3 minutes at 37° C. and resuspended in 10 mL cell culture medium. Following cell counting, 100,000 cells/well are seeded in a volume of 200 μL into Cytostar-T Scintillating 96-well microplates. After overnight incubation in a humid cell culture incubator at 37° C., 5% CO2, the cell culture medium is carefully aspirated and the cells are incubated with 200 μL prewarmed (37° C.) assay medium (50% DMEM+50% Ham's F-12+15 mM HEPES (pH 7.4) (medium contains 15.5 m M D(+)-glucose) per well for at least 1 h prior to the experiment.
Immediately prior to uptake assay, the assay medium is carefully removed and 100 μL test compound dilution is added to each well (n=3).
Following a 20 min incubation at 37° C. in the cell culture incubator, 20 μL of ^14C-citrate working solution is added to each well (final volume per well: 120 μL; final ^14C-citrate concentration ˜1.8 μM/well)).
After incubation over night at 37° C. in the cell culture incubator, the plates are sealed on the top using a transparent plastic foil and on the bottom using a white plastic foil. Following the sealing, the plate is placed into the TopCount NXT HTS and the signal is recorded.
(§2) The IC50 values of the compounds are calculated in IDBS XLfit by sigmoidal dose-response (variable slope).

[2] = target: T1, hSLC13A5; test: Recombinant hSLC13A5/14C-citrate uptake assay; format: cell-based; conditions: HEK293 Flp-In cells over-expressing hSLC13A5; WGA-PVT SPA beads; 14C-citrate approx. 2 μM; 4 h
Text: (5) Recombinant hSLC13A5/^14C-Citrate Uptake Assay
The human embryonic kidney 293 (HEK 293)-Flp-In cells (293Flp-In-hSLC13A5) over-expressing hSLC13A5 transporter were cloned: The originating plasmid pcDNA3.1-hSLC13A5 containing hSLC13A5 was synthesized at GeneArt. The cDNA for hSLC13A5 was taken from this plasmid by means of PCR amplification using primers with added HindIII (N-terminal) and XhoI (C-terminal) restriction sites and sub-cloned in frame into pcDNA5/FRT from Invitrogen using the respective restriction enzymes. HEK293 Flp-In cells from Invitrogen were stably co-transfected using the pcDNA/FRT-hSLC13A5 plasmid as well as the pOG44 plasmid.
HEK 293-Flp-In cells are used that stably over-express hSLC13A5 transporter which is responsible for the uptake of citrate into these cells.
The uptake of ^14C-citrate into the 293Flp-In-hSLC13A5 cells is monitored using the WGA-PVT SPA (wheat germ agglutinin-polyvinyltoluene scintillation proximity assay) beads that bind to the 293Flp-In cells due to their WGA-PVT surface. This assay format is based on the imported radioactive citrate brought into proximity with the SPA beads by virtue of the biological processes within the cells. The radioactive decay is converted into a light signal that can be measured using e.g. the TopCount plate reader.
as §1
Test Compound Dilutions (2Fold-Concentrated):
Starting from 10 mM stock solutions in 100% DMSO, compounds are diluted in pure DMSO using the appropriate dilution steps.
Prior to the uptake assay, 200 μL assay medium (lx HBSS (with Ca^2+ and Mg^2+, w/o Phenolred), contains 5.56 mM D(+)-Glucose)+19.44 mM D(+)-Glucose (final concentration of D(+)-Glucose is 25 mM))+4.8 μL compound solution (or pure DMSO for non-inhibited control wells) are mixed (final DMSO concentration in the assay: 1% (v/v)).
After preparing the 2fold-concentrated test compound dilutions, 50 μL are pipetted to each well of white OptiPlates-96 and incubated at 37° C. in an incubator.
^14C-Citrate Working Solution (Volumes Required Per 96-Well):
The 293Flp-In-hSLC13A5 cells are cultivated in cell culture medium (DMEM+10% fetal calf serum+100 μg/mL Hygromycin B). The medium of the confluent cultures is discarded and the cells are washed with DPBS (w/o Mg^2+ w/o Ca^2+). The cells are detached by the addition of 2.0 mL Accumax per 75 cm^2 culture flask for up to 3 minutes at 37° C. and resuspended in 10 mL assay medium. After cell counting, 50,000 cells/well are administered in a volume of 50 μL into the white OptiPlates-96 containing the respective test compound concentrations. Following a 20 min incubation at 37° C. in the cell culture incubator, 20 μL of ^14C-citrate working solution is added to each well (final volume per well: 120 μL; final ^14C-citrate concentration: approx. 2 μM/well).
After incubation for 4 h at 37° C. in a humid cell culture incubator and the addition of 30 μL of WGA-PVT SPA beads to each well (0.25 mg/well), the plates are sealed on the top using a transparent plastic foil. Incubate the plates for 1 h by room temperature and gentle shaking.
After incubation, the plate is placed into the TopCount NXT HTS and the signal is recorded.
The performance of the test compounds is calculated as follows:
Wells containing cells incubated with 1% DMSO only deliver values for the non-inhibited ^14C-citrate uptake into 293Flp-In-hSLC13A5 cells (100% CTL). Wells containing cells which have received 30 mM non-labelled potassium citrate solution in addition to the ^14C-citrate working solution deliver values for the background (0% CTL).
as §2

T1 sequence (Q86YT5 whole entry): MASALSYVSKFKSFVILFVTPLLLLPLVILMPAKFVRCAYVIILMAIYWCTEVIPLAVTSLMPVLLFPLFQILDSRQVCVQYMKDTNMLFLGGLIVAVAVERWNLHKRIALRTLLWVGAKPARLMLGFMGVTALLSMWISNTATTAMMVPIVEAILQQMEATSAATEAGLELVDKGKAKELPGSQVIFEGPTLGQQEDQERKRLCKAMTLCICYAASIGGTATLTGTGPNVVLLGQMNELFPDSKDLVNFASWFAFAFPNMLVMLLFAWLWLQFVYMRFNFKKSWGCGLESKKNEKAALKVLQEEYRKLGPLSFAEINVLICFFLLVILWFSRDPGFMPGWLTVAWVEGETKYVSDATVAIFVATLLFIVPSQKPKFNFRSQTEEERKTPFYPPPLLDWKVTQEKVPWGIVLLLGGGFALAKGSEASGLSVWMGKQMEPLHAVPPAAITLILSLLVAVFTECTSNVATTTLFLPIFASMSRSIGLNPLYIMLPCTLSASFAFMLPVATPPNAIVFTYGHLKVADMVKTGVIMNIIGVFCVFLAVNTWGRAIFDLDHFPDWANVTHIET

Row | Compound | IC50 [1] [nM] | IC50 [2] [nM]
1 | O=C(NCc1ccc(Cl)nc1)C1CCN(S(=O)(=O)c2cc(Cl)cc(Cl)c2)CC1 [(I-3)] | 471 | 
2 | Cc1cc(C)cc(CNC(=O)C2CCN(S(=O)(=O)c3cc(Cl)cc(Cl)c3)CC2)c1 [(I-4)] | 94 | 
3 | O=C(NCc1ccccc1Br)C1CCN(S(=O)(=O)c2cc(Cl)cc(Cl)c2)CC1 [(I-6)] | 82 | 
4 | O=C(NCc1ccc(Br)cc1)C1CCN(S(=O)(=O)c2cc(Cl)cc(Cl)c2)CC1 [(I-7)] | 30 | 
5 | Cc1ccc(CNC(=O)C2CCN(S(=O)(=O)c3cc(Cl)cc(Cl)c3)CC2)cc1 [(I-8)] | 37 | 
6 | O=C(NCc1nccs1)C1CCN(S(=O)(=O)c2cc(Cl)cc(Cl)c2)CC1 [(I-9)] | 246 | 303
7 | O=C(NCc1ccc(Cl)cn1)C1CCN(S(=O)(=O)c2cc(Cl)cc(Cl)c2)CC1 [(I-12)] | 103 | 132
8 | COc1ncccc1CNC(=O)C1CCN(S(=O)(=O)c2cc(Cl)cc(Cl)c2)CC1 [(I-13)] | 201 | 475
9 | Cc1csc(CNC(=O)C2CCN(S(=O)(=O)c3cc(Cl)cc(Cl)c3)CC2)n1 [(I-14)] | 83 | 
10 | Cc1ccc(CNC(=O)C2CCN(S(=O)(=O)c3cc(Cl)cc(Cl)c3)CC2)cn1 [(I-16)] | 632 | 675
11 | CCc1ccc(CNC(=O)C2CCN(S(=O)(=O)c3cc(Cl)cc(Cl)c3)CC2)nc1 [(I-17)] | 130 | 138
12 | O=C(NCc1ccccc1Cl)C1CCN(S(=O)(=O)c2cc(Cl)cc(Cl)c2)CC1 [(I-18)] | 60 | 
13 | Cc1ccccc1CNC(=O)C1CCN(S(=O)(=O)c2cc(Cl)cc(Cl)c2)CC1 [(I-19)] | 72 | 
14 | COc1ccccc1CNC(=O)C1CCN(S(=O)(=O)c2cc(Cl)cc(Cl)c2)CC1 [(I-21)] | 65 | 
15 | O=C(NCc1ccc(F)cc1Cl)C1CCN(S(=O)(=O)c2cc(Cl)cc(Cl)c2)CC1 [(I-22)] | 84 | 
16 | N#Cc1ccc(CNC(=O)C2CCN(S(=O)(=O)c3cc(Cl)cc(Cl)c3)CC2)c(F)c1 [(I-23)] | 142 | 91
17 | O=C(NCc1cc(F)ccc1F)C1CCN(S(=O)(=O)c2cc(Cl)cc(Cl)c2)CC1 [(I-24)] | 83 | 
18 | O=C(NCc1ccc(Cl)cc1F)C1CCN(S(=O)(=O)c2cc(Cl)cc(Cl)c2)CC1 [(I-25)] | 37 | 
19 | O=C(NCc1cccc(Cl)n1)C1CCN(S(=O)(=O)c2cc(Cl)cc(Cl)c2)CC1 [(I-26)] | 290 | 449
20 | O=C(NCc1ccc(Br)cn1)C1CCN(S(=O)(=O)c2cc(Cl)cc(Cl)c2)CC1 [(I-28)] | 171 | 127
21 | Cc1csc(CNC(=O)C2CCN(S(=O)(=O)c3cc(Br)cc(Br)c3)CC2)n1 [(I-29)] | 43 | 

Row | Compound | IC50 [1] [nM] | IC50 [2] [nM]
22 | O=C(NCc1ccc(Cl)cc1)C1CCN(S(=O)(=O)c2cc(Br)cc(Br)c2)CC1 [(I-30)] | 14 | 
23 | CCc1ccc(CNC(=O)C2CCN(S(=O)(=O)c3cc(Br)cc(Br)c3)CC2)nc1 [(I-31)] | 66 | 41
24 | N#Cc1ccc(CNC(=O)C2CCN(S(=O)(=O)c3cc(Br)cc(Br)c3)CC2)cc1 [(I-32)] | 23 | 
25 | COc1ncccc1CNC(=O)C1CCN(S(=O)(=O)c2cc(Br)cc(Br)c2)CC1 [(I-33)] | 182 | 275
26 | COc1ccccc1CNC(=O)C1CCN(S(=O)(=O)c2cc(Br)cc(Br)c2)CC1 [(I-34)] | 27 | 
27 | O=C(NCc1ccc(F)cn1)C1CCN(S(=O)(=O)c2cc(Br)cc(Br)c2)CC1 [(I-35)] | 147 | 54
28 | O=C(NCc1cccnc1)C1CCN(S(=O)(=O)c2cc(Br)cc(Br)c2)CC1 [(I-36)] | 448 | 354
29 | O=C(NCc1ccccn1)C1CCN(S(=O)(=O)c2cc(Br)cc(Br)c2)CC1 [(I-37)] | 253 | 89
30 | O=C(NCc1ccccc1F)C1CCN(S(=O)(=O)c2cc(Br)cc(Br)c2)CC1 [(I-38)] | 14 | 
31 | O=C(NCc1ccc(Br)cc1)C1CCN(S(=O)(=O)c2cc(Br)cc(Br)c2)CC1 [(I-39)] | 14 | 
32 | O=C(NCc1ccc(F)cc1)C1CCN(S(=O)(=O)c2cc(Br)cc(Br)c2)CC1 [(I-40)] | 17 | 26
33 | Cc1cc(C)cc(S(=O)(=O)N2CCC(C(=O)NCc3nc(C)cs3)CC2)c1 [(I-41)] | 155 | 438
34 | Cc1cc(C)cc(S(=O)(=O)N2CCC(C(=O)NCc3ccc(F)cc3)CC2)c1 [(I-42)] | 35 | 
35 | Cc1cc(C)cc(S(=O)(=O)N2CCC(C(=O)NCc3ccc(C#N)cc3)CC2)c1 [(I-43)] | 46 | 
36 | COc1ccccc1CNC(=O)C1CCN(S(=O)(=O)c2cc(C)cc(C)c2)CC1 [(I-44)] | 132 | 703
37 | Cc1cc(C)cc(S(=O)(=O)N2CCC(C(=O)NCc3ccc(Cl)cc3)CC2)c1 [(I-45)] | 25 | 
38 | Cc1cc(C)cc(S(=O)(=O)N2CCC(C(=O)NCc3ncc(C)s3)CC2)c1 [(I-46)] | 202 | 398
39 | Cc1cc(C)cc(S(=O)(=O)N2CCC(C(=O)NCc3ccccc3F)CC2)c1 [(I-47)] | 34 | 
40 | Cc1cc(C)cc(S(=O)(=O)N2CCC(C(=O)NCc3ccc(Br)cc3)CC2)c1 [(I-48)] | 17 | 
41 | CCOc1cc(Cl)cc(S(=O)(=O)N2CCC(C(=O)NCc3ccc(C#N)cc3F)CC2)c1 [(I-50)] | 73 | 127
42 | CCOc1cc(Cl)cc(S(=O)(=O)N2CCC(C(=O)NCc3ccc(F)cc3)CC2)c1 [(I-51)] | 14 | 66

Source: US10793522B2, “Sulfonamides as inhibitors of the uptake of extracellular citrate” (Boehringer Ingelheim International GmbH, priority 2016, dated 2020)
